Experimental data taken from patent US9844565B2, “Systems and methods for treatment of acne vulgaris and other conditions with a topical nitric oxide delivery system” (priority 2012, dated 2017).

Assays:
[1] = tested on: micro-capillary blood flow to skin; assay: Laser Doppler study with covered chamber in three human female subjects, 10,000 ppm NO (Example 5); format: in vivo; details: applied to the skin at 1/10% in alcohol
From the text: While nitric oxide has many physiological effects, the purpose of these studies was to measure physiological effects that would be relatively easy to determine, and which would be noninvasive. […] Nitric oxide is capable of […] the capillary bed, and thus, laser Doppler was selected.
The formulation used in these studies contained nitric oxide dispersed in a lipid matrix. […] Nitric oxide is a very rapid acting molecule, and these studies used a system that employed laser Doppler with a covered chamber. The formulation was placed into the chamber and then attached to the skin by an adhesive layer on the covering. This provided a stable measuring device as determined by multiple normal evaluations of the capillary blood flow without treatment of nitric oxide.
A known positive control, methyl nicotinate, was applied to the skin at a concentration of 1/10% in alcohol. […] The vascular dynamics are such that when the blood vessels dilate physical parameters follow Bernoulli's law. […] The laser Doppler device accurately measured these parameters. […]
A Moor Instruments DRT4 Laser Doppler Blood Flow Monitor (Devon, England) was used in these studies. The laser Doppler technique measured blood flow in the microcapillaries of the skin that are close to the skin surface and the blood flow in underlying arterioles and venules that help to regulate skin temperature. […]

[2] = tested on: capillary circulation of the skin; assay: Laser Doppler study in five human subjects, 10,000 ppm NO formulation vs controls (Example 7); format: in vivo; details: positive control formulation containing 0.1% methyl nicotinate
From the text: This example illustrates delivery of nitric oxide formulations to five human subjects, using procedures and formulations similar to those discussed in Example 5. Each person served as their own control for the testing. A Moor Instruments Laser Doppler was used to determine circulation. […] The formulations used produce positive, almost immediate results when applied to the skin which, in these studies, was manifested by vasodilatation of the cutaneous vascular system.
For each subject, the following creams were applied: a negative control formulation (containing no NO), 0.010 gram of a 10,000 ppm NO formulation, 0.020 gram of a 10,000 ppm NO formulation, and a positive control formulation containing 0.1% methyl nicotinate. The formulations were prepared using procedures similar to those discussed in Example 1.

In the case of `COC(=O)c1cccnc1` [methyl nicotinate], the “laser Doppler response of positive control” value [1] is reported as “rapid response typical of the vasodilator” and the “vasodilatation (laser Doppler)” value [2] is reported as “vasodilatation was observed”.
